Drawing on US8420144B2, “Kokumi-imparting agent, method of using, and compositions containing same” (Ajinomoto Co., Inc., priority 2005, dated 2013), this text covers EC50 for one molecule.

The experiment addresses T1, human CaSR (Homo sapiens, UniProt P41180).
T1 construct: expressed in transfected cells; host or cells: HEK 293 cells, transient transfection of a CMV-promoter expression vector
T1 sequence (P41180 20-1078): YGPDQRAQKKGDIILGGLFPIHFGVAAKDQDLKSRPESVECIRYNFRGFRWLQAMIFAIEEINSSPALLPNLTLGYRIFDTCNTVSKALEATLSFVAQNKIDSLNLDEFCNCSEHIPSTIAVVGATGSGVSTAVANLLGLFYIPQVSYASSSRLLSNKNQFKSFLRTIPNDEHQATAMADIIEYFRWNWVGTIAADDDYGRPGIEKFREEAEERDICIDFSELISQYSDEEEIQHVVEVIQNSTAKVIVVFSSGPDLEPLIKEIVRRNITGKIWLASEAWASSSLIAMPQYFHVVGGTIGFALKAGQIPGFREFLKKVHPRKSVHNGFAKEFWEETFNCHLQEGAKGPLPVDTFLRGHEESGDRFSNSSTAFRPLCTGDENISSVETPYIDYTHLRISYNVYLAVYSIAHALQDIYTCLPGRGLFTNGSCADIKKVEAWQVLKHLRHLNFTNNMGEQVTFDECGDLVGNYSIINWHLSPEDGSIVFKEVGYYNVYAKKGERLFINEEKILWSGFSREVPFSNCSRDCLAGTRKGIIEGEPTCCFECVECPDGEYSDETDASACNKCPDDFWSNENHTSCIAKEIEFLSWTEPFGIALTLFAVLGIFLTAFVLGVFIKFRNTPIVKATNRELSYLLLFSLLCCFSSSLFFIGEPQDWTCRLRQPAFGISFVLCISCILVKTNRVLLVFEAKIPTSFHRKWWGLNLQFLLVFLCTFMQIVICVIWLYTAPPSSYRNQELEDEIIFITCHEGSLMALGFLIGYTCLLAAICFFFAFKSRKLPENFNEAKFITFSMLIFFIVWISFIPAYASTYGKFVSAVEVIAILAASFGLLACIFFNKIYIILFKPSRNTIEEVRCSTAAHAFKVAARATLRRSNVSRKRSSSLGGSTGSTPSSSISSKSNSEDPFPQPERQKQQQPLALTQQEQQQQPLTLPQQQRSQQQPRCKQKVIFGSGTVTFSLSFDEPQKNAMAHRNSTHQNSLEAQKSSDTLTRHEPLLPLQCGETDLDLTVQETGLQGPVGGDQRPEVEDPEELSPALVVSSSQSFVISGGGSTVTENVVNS
Nature of the experiment: Calcium receptor (CaSR) activation activity: calcium imaging in HEK 293 cells expressing human CaSR. Conditions: concentration giving 50% of the maximal activity; single values n = 1, others n = 2 or 3. In kind it is cell-based. On the procedure: Calcium receptor (CaSR) activation activity of peptides obtained in Examples 2, 3, and 5-12 were measured as follows. A cDNA of human CaSR obtained in Example 1 of WO2007/055393A1 was inserted into an expression vector for an animal cell having a CMV promoter, and the cDNA in the vector was introduced into HEK 293 cells, which had multiplied to 70% of the maximal cell density, using FuGINE6 (Roche Ltd.). After culturing the cells for 4 to 48 hours, 0.6-1.0×10^5 of cells/well were disseminated into a 96-well plate, subsequently, the cells were cultured for one day, and then stained using Calcium 3 Assay Kit. The presence or absence of a calcium receptor activation activity of each peptide was confirmed by a calcium imaging method using FLEXSTATION (Molecular Devices Inc., instruction manual). Furthermore, the concentration of each peptide giving 50% of the maximal activity (EC50) was calculated using a dose characteristic curve.

Regarding `CC(C)[C@H](NC(=O)CC[C@H](N)C(=O)O)C(=O)NCC(=O)O` [γ-Glu-Val-Gly], the EC50 was 23 to 55 nM.
